According to PubChem BioAssay AID1963984 (Molecular Pharmacology Branch, DTP, NCI, 2024):

Tested on: 233499-124-R-J3-PDC spheroids with HUVEC/MSC, viability
Test: Anticancer human tumor 233499-124-R-J3-PDC patient-derived colon adenocarcinoma cell line growth inhibition [PI3K]
Conditions: for IC50: curve of first compound; for viability, T/C: stronger effect = lower value
Text: Combinatorial screen of targeted agents with the PI3K inhibitors inavolisib, alpelisib, duvelisib, and copanlisib in multi-cell type tumor spheroids
A high-throughput screen of multi-cell type tumor spheroids was designed to identify active combinations of targeted small molecules and PI3K pathway inhibitors. Complex spheroids include a stromal component modeled by human endothelial cells (HUVEC) and fibroblasts modeled by human mesenchymal stem cells (MSCs). The concentration ranges selected for each drug and investigational agent were based upon clinically achievable concentrations if the clinical Cmax of the agent was known.
Compounds. The drugs and investigational agents: inavolisib (NSC800729), alpelisib (NSC765974), duvelisib (NSC772469), copanlisib (NSC816437), ipatasertib (NSC767898), afuresertib (NSC778305), talazoparib (NSC767125), sapanisertib (NSC764658), selumetinib (NSC741078), tovorafenib (DAY101, NSC766906), vemurafenib (NSC761431), ravoxertinib (NSC781343), sotorasib (NSC818433), MRTX1133 (NSC 836407), abemaciclib (NSC 768073), palbociclib (NSC758247), venetoclax (NSC 766270), SY5609 (NSC837396), enzalutamide (NSC755605), and darolutamide (NSC825331), were obtained from the National Cancer Institute (NCI) Developmental Therapeutics Program Chemical Repository. The FDA-approved anticancer drug set is available from the NCI Developmental Therapeutics Program. […] The stock solutions were prepared in dimethyl sulfoxide (DMSO, Sigma-Aldrich, St. Louis, MO, cat. D2650) at 800-fold the tested concentration and stored at -70 degrees C prior to their use. All drugs and investigational agents were tested over a range starting from a high concentration at or near the clinical Cmax and decreasing in half-log increments. If the clinical Cmax for an agent had not been determined, the highest concentration tested was 10 microM.
Cell Culture. All cells were maintained in an incubator at 37 degrees C and 5% CO2 with 95% humidity. The PDC lines were cultured according to standard operating procedures established by the NCI PDMR (https://pdmr.cancer.gov/sops/default.htm). All PDCs were thawed and cultured in Matrigel-coated flasks prepared with a working solution of 1X Ham's F-12 nutrient mix, without supplementation (Invitrogen, Waltham, MA, cat. 11765054), 100 U/mL penicillin-streptomycin (Invitrogen, cat. 15140122), and 2.5% Matrigel (Corning Inc., Corning, NY, cat. 354248) for the first three passages. The 354836-022-R-J1-PDC, 475296-252-R-J1-PDC, and 997726-040-R-J2-PDC lines were cultured in 6A media, which includes advanced DMEM/F-12 (Thermo Fisher Scientific, cat. 12634028), 10 mM HEPES (Thermo Fisher Scientific, cat. 15630080), 1X GlutaMAX supplement (Thermo Fisher Scientific, cat. 35050061), 0.1 mg/mL primocin (InvivoGen, San Diego, CA, cat. ant-pm-2), 10% defined fetal bovine serum, heat inactivated (HyClone Laboratories Inc., Logan, UT, cat. SH30070.03HI), 50% L-WRN conditioned media (ATCC, cat. CRL-3276), 1.25 mM N-Acetyl-L-cysteine (Sigma-Aldrich, cat. A9165), 10 mM nicotinamide (Sigma-Aldrich, cat. N0636), 1X B-27 supplement (Thermo Fisher Scientific, cat. 17504044), 1X N-2 supplement (Thermo Fisher Scientific, cat. 17502048), and 10 microM Y-27632 dihydrochloride (Tocris Bioscience, Bristol, United Kingdom, cat. 1254). The 624824-186-R-J2-PDC line was cultured in 6C/Colon 1B media, which includes all 6A media components plus 50 ng/mL human EGF recombinant protein (Thermo Fisher Scientific, cat. PHG0311). […]
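Note: spheroids exposed to agents for seven days before readout.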
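Throughout, for viability, T/C: percent viability relative to DMSO vehicle control taken as 100%.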

## CNC(=O)c1ccc(N2C(=S)N(c3ccc(C#N)c(C(F)(F)F)c3)C(=O)C2(C)C)cc1F + CC(Nc1ccc2c(c1)OCCn1cc(N3C(=O)OCC3C(F)F)nc1-2)C(N)=O
Second compound 0.00316 µM
  IC50: 8.07 µM
Second compound 0.01 µM
  IC50: > 10 µM
Second compound 0.0316 µM
  IC50: > 10 µM
Second compound 0.1 µM
  IC50: > 10 µM
Second compound 0.316 µM
  IC50: > 10 µM
Second compound 1 µM
  IC50: 0.145 µM
Second compound 0.00316 µM, first compound 0.0316 µM
  viability, T/C: 85.8%
Second compound 0.00316 µM, first compound 0.1 µM
  viability, T/C: 82.7%
Second compound 0.00316 µM, first compound 0.316 µM
  viability, T/C: 79.2%
Second compound 0.00316 µM, first compound 1 µM
  viability, T/C: 92%
Second compound 0.00316 µM, first compound 3.16 µM
  viability, T/C: 78.3%
Second compound 0.00316 µM, first compound 10 µM
  viability, T/C: 42.9%
Second compound 0.01 µM, first compound 0.0316 µM
  viability, T/C: 88.3%
Second compound 0.01 µM, first compound 0.1 µM
  viability, T/C: 98.5%
Second compound 0.01 µM, first compound 0.316 µM
  viability, T/C: 95%
Second compound 0.01 µM, first compound 1 µM
  viability, T/C: 76.9%
Second compound 0.01 µM, first compound 3.16 µM
  viability, T/C: 71.2%
Second compound 0.01 µM, first compound 10 µM
  viability, T/C: 72.2%
Second compound 0.0316 µM, first compound 0.0316 µM
  viability, T/C: 88.9%
Second compound 0.0316 µM, first compound 0.1 µM
  viability, T/C: 54.9%
Second compound 0.0316 µM, first compound 0.316 µM
  viability, T/C: 76%
Second compound 0.0316 µM, first compound 1 µM
  viability, T/C: 89.2%
Second compound 0.0316 µM, first compound 3.16 µM
  viability, T/C: 88.1%
Second compound 0.0316 µM, first compound 10 µM
  viability, T/C: 67.4%
Second compound 0.1 µM, first compound 0.0316 µM
  viability, T/C: 84.7%
Second compound 0.1 µM, first compound 0.1 µM
  viability, T/C: 71.8%
Second compound 0.1 µM, first compound 0.316 µM
  viability, T/C: 94.4%
Second compound 0.1 µM, first compound 1 µM
  viability, T/C: 77.9%
Second compound 0.1 µM, first compound 3.16 µM
  viability, T/C: 69.5%
Second compound 0.1 µM, first compound 10 µM
  viability, T/C: 55.6%
Second compound 0.316 µM, first compound 0.0316 µM
  viability, T/C: 88.2%
Second compound 0.316 µM, first compound 0.1 µM
  viability, T/C: 38%
Second compound 0.316 µM, first compound 0.316 µM
  viability, T/C: 71.2%
Second compound 0.316 µM, first compound 1 µM
  viability, T/C: 76.2%
Second compound 0.316 µM, first compound 3.16 µM
  viability, T/C: 59.1%
Second compound 0.316 µM, first compound 10 µM
  viability, T/C: 53.6%
Second compound 1 µM, first compound 0.0316 µM
  viability, T/C: 52.5%
Second compound 1 µM, first compound 0.1 µM
  viability, T/C: 52.1%
Second compound 1 µM, first compound 0.316 µM
  viability, T/C: 42.8%
Second compound 1 µM, first compound 1 µM
  viability, T/C: 50.2%
Second compound 1 µM, first compound 3.16 µM
  viability, T/C: 43.7%
Second compound 1 µM, first compound 10 µM
  viability, T/C: 34.6%
